Results published in publication PMC12163635, “Synthetic Retinoids for the Modulation of Genomic and Nongenomic Processes in Neurodegenerative Diseases” (ACS Omega, 2025).

What was measured:
[1] = tested on: Sil-15 cells containing a RARE driving a lacZ reporter; test: X-Gal-based RA reporter assay (genomic response); format: cell-based; set-up: genomic response Emax (±95% CI): unit not given here; conditions: for genomic response Emax (±95% CI) / EC50: Sil-15 reporter cells; for genomic response Emax (±95% CI): absorbance at 650 nm; for EC50: read-out: genomic response EC50 (±95% CI), overnight, 10^–6 to 10^–14 M; for genomic EC50 compared with ATRA: nonoverlapping 95% CI
Excerpt: Following chemical design and synthesis, the synthetic retinoid library was screened for genomic and nongenomic biological activities and compared to the response of the endogenous retinoid, ATRA. In these assays, the EC50 value represented the concentration of retinoid that gave half-maximal response (potency), while the E max value represented the maximum response achievable from the retinoid (efficacy).
The transcriptional genomic activity of the retinoids was quantified using Sil-15 cells containing a RARE driving a lacZ reporter. […] Twenty-two of the synthetic retinoids were effective in inducing genomic activity. […] In addition, the retinoids varied in their efficacies.
The Sil-15 cell line was used in the X-gal RA reporter assay described below. The cells were grown in Dulbecco’s modified Eagle’s medium (DMEM) containing 10% fetal bovine serum (FCS) (Invitrogen/Gibco), 0.6% penicillin-streptomycin (Gibco) and 0.8 mg/mL G418 sulfate (Sigma) for selection. They were maintained in a humidified atmosphere containing 5% CO2 at 37 °C. The medium was changed three times a week and the cells were passaged at 70% confluence using 0.05% trypsin-EDTA.
Sil-15 cells are F9 teratocarcinoma cells stably transfected with a plasmid containing the LacZ gene under the control of a DR5-type RA response element (RARE). The reporter cell line was used to detect the transcriptional genomic activity of ATRA and other retinoids by colorimetrically quantifying the insoluble blue product generated by β-galactosidase from X-gal during the assay. The assay was performed by plating 100,000 cells per well in the 0.1% gelatin-coated 96-well plates and leaving them to attach overnight. The ATRA/retinoids dilutions ranging from 10^–6 to 10^–14 M were incubated on the reporter cells overnight at 37 °C, in 5% CO2. A standard curve of ATRA was included in each experiment to ensure the reproducibility of the results between assays performed on different days. All the assays for ATRA as well as the retinoids were quantified in triplicate. Serial dilutions of retinoids were prepared from a stock solution under red/orange light. The stock solutions prepared in DMSO for each retinoid varied depending on the solubility of each compound. Each stock was stored at −20 °C and protected from light. The next day, Sil-15 cells were washed with PBS, fixed with 1% glutaraldehyde and 1 mM MgCl2 solution for 15 min, and developed in X-gal developing solution (0.2% X-Gal, 1 mM MgCl2, 3.3 mM potassium ferricyanide and 3.3 mM potassium ferrocyanide in PBS). The plates were read on an E max microplate reader (Molecular Devices) at 650 nm.
(§1) All data are presented as mean ± SEM of three independent experiments with biological triplicates. Statistical analyses were performed in Microsoft Office Excel 2019 or GraphPad Prism 7.0c version (Prism, GraphPad Software, San Diego, CA). Neurite outgrowth data were analyzed by one-way ANOVA with Newman-Keuls multiple comparison test as appropriate; P value <0.05 was considered statistically significant. *P < 0.05, **P < 0.01. Data for X-Gal and ERK1/2 phosphorylation were analyzed using sigmoidal dose–response analysis of log (agonist) versus response curve (stimulation).

[2] = tested on: SH-SY5Y cells; test: Neurite outgrowth; format: cell-based, human; conditions: 10 nM, 5 days
Experimental: Following the characterization of retinoids for their genomic and nongenomic activities, the ability of retinoids to differentiate and induce neurite outgrowth in the neuroblastoma cell line, SH-SY5Y cells, was examined (Figure ). Neurite outgrowth can be induced in this cell line by ATRA at 10 μM.
(§2) SH-SY5Y cell line as used in ERK phosphorylation and neurite outgrowth assays described below. The cells were grown in DMEM containing 10% FCS at 37 °C with 5% CO2. The medium was changed three times a week and the cells were passaged at 70% confluence using 0.05% trypsin-EDTA.
SH-SY5Y cells were plated at 10,000 cells/well in 12-well plates containing 16 mm acid-treated/poly L-lysine-coated glass coverslips. After 24 h, retinoids were added to the medium and tested at two different concentrations, 10 μM and 10 nM, with a final DMSO concentration of 0.01 or 0.0001%, respectively. The plates were incubated for 5 days at 5% CO2/37 °C. All retinoid concentrations were tested in triplicate. Cells were fixed using 4% paraformaldehyde and stained for β-III tubulin (1:1000; Sigma). For each neurite outgrowth experiment, 3 coverslips (in 3 wells) were used. ImageJ software with the NeuronJ plugin was used to quantify neurite outgrowth on stained cells in each of the 10 randomly selected images of each coverslip taken using a Nikon Eclipse E400 fluorescence microscope. The average neurite length was calculated for each image by dividing total neurite length by the total number of neurites per image.
as §1

[3] = tested on: ERK1/2 phosphorylation in SH-SY5Y cells; test: ERK1/2 phosphorylation (nongenomic response), AlphaScreen SureFire; format: cell-based, human; conditions: for EC50: Homo sapiens, read-out: nongenomic response EC50 (±95% CI); for EC50 / nongenomic response Emax (±95% CI): SH-SY5Y cells, 1 h; for nongenomic E max compared with ATRA: nonoverlapping 95% CI
Experimental: After screening the retinoids for genomic responses, they were tested for their nongenomic ability to rapidly phosphorylate ERK1/2 in the SH-SY5Y cell line. ATRA is known as a potent activator of ERK1/2 − and was used as the standard for comparison. […] The efficacies of the remaining seven retinoids were similar to ATRA.
as §2
To quantify ERK1/2 phosphorylation, SH-SY5Y cells (100,000 cells/well) were plated onto 96-well plates and serum-starved for 24 h in DMEM. Cells were assayed in serum-free DMEM and stimulated for 60 min at 37 °C in a humidified atmosphere. Retinoids were tested at concentrations ranging from 10 to 4 to 10–11 M and at a final concentration of 0.1% DMSO. At the end of the assay, the medium was removed, and cells were lysed with lysis buffer supplied in the AlphaScreen SureFire ERK1/2 kit (PerkinElmer). The assay was performed in 384-well white Proxiplates according to the manufacturer’s instructions and using the beads supplied in the protein A general IgG detection kit (PerkinElmer). Briefly, 4 μL samples were incubated with 7 μL of the freshly prepared mixture containing donor and acceptor beads. Plates were incubated at room temperature and read with the Envision system (PerkinElmer Life Sciences) using AlphaScreen settings.
as §1

SMILES | genomic response Emax (±95% CI) [1] | EC50 [1] | induction of neurite outgrowth compared with ATRA [2] | EC50 [3] | nongenomic response Emax (±95% CI) [3] | genomic EC50 compared with ATRA [1] | nongenomic E max compared with ATRA [3]
CC1=C(/C=C/C(C)=C/C=C/C(C)=C/C(=O)O)C(C)(C)CCC1 [ATRA, all-trans retinoic acid, reference compound] | 170 (±5.65) | 1.04 nM | does not significantly induce such outgrowth | 33.1 nM | 48.6 (±1.85) |  | 
COc1cc2c(cc1C#Cc1ccc(C(=O)O)cc1F)C(C)(C)CCC2(C)C [Compound 21, 3-Fluoro-4-[2-(3-methoxy-5,5,8,8-tetramethyl-5,6,7,8-tetrahydronaphthalen-2-yl)ethynyl]benzoic Acid] |  | 5.31 nM | induced neurite outgrowth but not significantly compared to ATRA | 90.8 nM | 36.9 (±2.86) | significantly higher EC50 values than ATRA | E max values significantly lower than ATRA
CC1(C)CCC(C)(C)c2cc(C#Cc3ccc(C(=O)O)cc3)ccc21 [EC23, reference compound] | 169 (±10.8) | 0.128 nM | induced significant neurite outgrowth compared to ATRA | 30.6 nM | 92.5 (±6.96) | significantly lower EC50 than ATRA | E max values significantly higher than ATRA
